SMILES strings stand for the structures. Values after ≈ are worked out from the molar mass of the structure shown. Peptide text beside a SMILES is read from it.

One data set concerns S. aureus ATCC 6538. It counts as cell-based, Staphylococcus aureus. As for the experimental part: (§1) MICs were determined to evaluate the antimicrobial activities of the peptides. The bacteria were inoculated into Mueller‐Hinton broth (MHB) medium in advance and placed in a shaker at 37°C until the logarithmic growth phase. The optical density value at OD600 of the bacterial suspension was adjusted to 0.4, and then diluted 1000 times with sterile MHB medium. Subsequently, the peptides with concentrations of 0.25–128 μM were prepared using bovine serum albumin (BSA) solution (0.2% BSA and 0.01% acetic acid) as the solvent on a 96‐well plate. Different concentrations of peptides and bacterial liquids were mixed in equal volumes. MHB medium containing bacteria was used as a positive control. MHB medium without bacteria was used as a negative control. Then, the mixture of peptides and bacteria was cultured in an incubator at 37°C for 18–24 h. The optical density of each well was measured at 492 nm using a microplate reader. The lowest drug concentration corresponding to a culture mixture with an optical density of less than 0.1 is the MIC of the peptide. The assay was repeated three times in duplicate.
The assay was performed to analyze the salt ion stability of SFK2 by measuring changes in MIC values in different physiological salt concentrations, [46].

The next data set has as its system S. epidermidis 12228. It counts as cell-based, Staphylococcus epidermidis. As to the method:
as §1

The next data set relates to E. coli K88. The data set is classed as cell-based, Escherichia coli. The settings on record: microbroth dilution, MHB, 37°C, 18–24 h, OD492 < 0.1; repeated three times in duplicate. As to the method:
as §1
(In general: In broth dilution the organism is exposed to a series of concentrations in liquid medium.)

The subject of a further data set is E. coli 25922. The data set is classed as cell-based, Escherichia coli. As to the method: as §1
The next data set deals with E. coli K99. It counts as cell-based, Escherichia coli. The settings on record: microbroth dilution, MHB, 37°C, 18–24 h, OD492 < 0.1; repeated three times in duplicate. As for the experimental part: as §1
Another data set concerns P. aeruginosa 15442. It counts as cell-based, Pseudomonas aeruginosa. As to the method: as §1
Another data set concerns P. aeruginosa 27853. The data set is classed as cell-based, Pseudomonas aeruginosa. As to the method:
as §1

Data set [1] relates to BALB/c mice. The experiment in a line: Biosafety evaluation, intraperitoneal injection. It counts as in vivo, mouse. The settings on record: i.p. 15 and 30 mg/kg once daily, 7 days, n = 6, except 15 mg/kg group for urea. As for the experimental part:
Eighteen male BALB/c mice (weighing approximately 30 g) were randomly divided into three groups (control, low‐dose, and high‐dose groups). Mice in the low‐ and high‐dose groups were intraperitoneally injected with 15 and 30 mg/kg polypeptide solutions, respectively, once daily. Mice in the control group were injected intraperitoneally with 150 µl of saline once daily. The experiment lasted for 7 days, and the changes in the body weight of the mice were recorded. After the seventh intraperitoneal injection for another 12 h, the mice were anesthetized with ether and euthanized. Blood was collected from the orbital vein, and serum was analyzed by biochemical analysis after centrifugation. The livers and kidneys of mice were collected and weighed. Afterward, the organs were fixed in a 4% paraformaldehyde solution and stained with H&E for analysis.

Data set [2] concerns BALB/c mice. Briefly: Biosafety evaluation, tail vein injection. It counts as in vivo, mouse. The settings on record: tail vein 5 mg/kg once daily, 7 days, n = 6. As for the experimental part: Twelve male BALB/c mice (weighing approximately 20 g) were randomly divided into two groups (control and peptide‐treated groups). Mice in the peptide‐treated group were injected intravenously into the tail vein with 5 mg/kg peptide solution once daily. In the control group, mice were injected once daily with saline via the tail vein. The experiment was continued for 7 days, and changes in body weight were recorded. Mice were anesthetized with ether and euthanized 12 h after the seventh tail vein injection. Blood was collected from the orbital vein and centrifuged, and the serum was analyzed biochemically. The livers and kidneys of mice were collected and weighed. The organs were then fixed in a 4% paraformaldehyde solution and analyzed by H&E staining.

The subject of another data set is S. aureus 6538. The data set is classed as cell-based, Staphylococcus aureus. As for the experimental part:
as §1

The next data set deals with S. aureus 1882. It counts as cell-based, Staphylococcus aureus. As for the experimental part: as §1
The next data set relates to red blood cells. It counts as cell-based, pig. As to the method:
A series of parameters such as charge number, hydrophobicity, sequence length, and amphipathicity can affect the hemolytic activity of peptides against red blood cells. The minimal hemolytic concentration (MHC) refers to the minimum concentration that causes hemolysis of 10 % of red blood cells, and is often used to evaluate the hemolytic activity of the peptides. Except for SFK3, the percentage of hemolysis at 128 μM was below 5% for all peptides. Hemolysis of the erythrocytes occurred after incubation with Triton X‐100, with complete fragmentation of the erythrocytes and a bright red color of the reaction system (Figure 2B,C and Table S5).
The hemolytic activity of the peptide was calculated by measuring the level of […] released from mammalian red blood cell lysis induced by the peptide, [44]. Fresh porcine blood was collected from the jugular vein and washed with PBS three times, and red blood cells were collected. A red blood cell suspension of 10% (v/v) concentration was prepared in 10 mM PBS (pH = 7.4). After mixing with different concentrations of peptides in equal volume, they were incubated at 37°C for 2 h. Red blood cells treated with PBS and 0.1% Triton X‐100 were used as negative and positive controls, respectively. The assay was repeated three times. After the sample was centrifuged, the supernatant was transferred to a new 96‐well plate, and the optical density at 570 nm was measured using a microplate reader. Hemolysis was calculated as follows: Hemolytic activity(%)=ODtest sample−ODnegative control/ODpositive control−ODnegative control×100%

As to `CC[C@H](C)[C@H](NC(=O)[C@H](CCCNC(=N)N)NC(=O)[C@H](CO)NC(=O)[C@H](CC(C)C)NC(=O)[C@H](Cc1ccccc1)NC(=O)[C@H](Cc1ccccc1)NC(=O)[C@H](Cc1ccccc1)NC(=O)CNC(=O)CNC(=O)CNC(=O)[C@H](CO)NC(=O)[C@H](C)NC(=O)[C@H](CCCNC(=N)N)NC(=O)[C@@H](NC(=O)[C@H](Cc1c[nH]c2ccccc12)NC(=O)[C@H](Cc1ccc(O)cc1)NC(=O)[C@@H](N)CO)C(C)C)C(=O)N[C@@H](Cc1ccccc1)C(=O)N[C@@H](CCCCN)C(=O)N[C@@H](CCCCN)C(N)=O` [SFK2] (H-SYWVRASGGGFFFLSRIFKK-NH2), in the data set on S. aureus ATCC 6538, the “MIC of SFK2 against S. aureus ATCC 6538, Control” value is listed as 2 µM; the “MIC of SFK2 against S. aureus ATCC 6538, FeCl3” value turned out to be 4 µM; the “MIC of SFK2 against S. aureus ATCC 6538, KCl” value came out at 4 µM; the “MIC of SFK2 against S. aureus ATCC 6538, MgCl2” value is 4 µM. Moreover, in the data set on S. aureus ATCC 6538, the “MIC of SFK2 against S. aureus ATCC 6538, NH4Cl” value turned out to be 4 µM; the “MIC of SFK2 against S. aureus ATCC 6538, NaCl” value was 4 µM; the “MIC of SFK2 against S. aureus ATCC 6538, ZnCl2” value was 2 µM. The “MIC S. epidermidis 12228” value against S. epidermidis 12228 was greater than 64 µM. Moreover, in the data set on E. coli K88, the “MIC E. coli K88” value is greater than 64 µM. The “MIC E. coli 25922” value against E. coli 25922 is greater than 64 µM. Moreover, the “MIC E. coli K99” value in the data set on E. coli K99 is greater than 64 µM. Further, in the data set with P. aeruginosa 15442, the “MIC P. aeruginosa 15442” value was greater than 64 µM. For the same compound, in the data set on P. aeruginosa 27853, the “MIC P. aeruginosa 27853” value was greater than 64 µM. In addition, the “Relative organ indices and liver- and kidney function-related indices (Crea, urea, AST, ALT, TBIL, ALP)” value in the data set with BALB/c mice [1] is reported as “no significant differences”. Besides, the “Toxic side effects after tail vein injection” value in the data set with BALB/c mice [2] was “negligible toxic side effects”. The “MIC S. aureus 6538” value against S. aureus 6538 was determined as 2 µM (≈ 4.71 µg/mL). The “MIC S. aureus 1882” value in the data set with S. aureus 1882 is 2 µM (≈ 4.71 µg/mL). For the same compound, in the data set on red blood cells, the MHC entry is “>128 μM”.

These data come from publication PMC11211671, “Phage‐displayed heptapeptide sequence conjugation significantly improves the specific targeting ability of antimicrobial peptides against Staphylococcus aureus” (mLife, 2024).
